Data taken from patent US20020137929A1, “1 - (3-heterocyclylphenyl) isothiourea, -isourea, -guanidine and -amidine herbicidal agents” (Intellectual Property Department, BASF Aktiengesellschaft, priority 1998, published 2002).

Columns and labels:
[1] = system: ECHORC (Watergrass (Calif.)); assay: Postemergence weed control under flooded paddy conditions; format: in vivo, Echinochloa oryzoides; settings: postemergence weeds, 3-4 weeks after treatment
Summary of the method: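 With weeds 3 to 5 cm tall and rice at the 1.5 to 2.5 leaf stage, containers were flooded and water held 1.5 to 3 cm above soil. Compounds in 50/50 v/v aqueous/acetone went into the flood water at about 0.0313 to 0.500 kg/ha a.i. Effects were visually rated 0–9 against controls after three to four weeks in the greenhouse.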

[2] = system: ECHCG (Barnyardgrass); assay: Preemergence herbicidal evaluation; format: in vivo, Echinochloa crus-galli; settings: rated 4-5 weeks after treatment
Summary of the method: (§1)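 Seeds were planted in potting soil in cups, then sprayed preemergence with the test compound in aqueous acetone at about 0.0156 to 0.500 kg per hectare. Cups were kept under greenhouse conditions and visually rated 4–5 weeks after treatment on a 0–9 scale against an untreated control.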

[3] = system: IPOHE (Morningglory, Ivyleaf); assay: Preemergence herbicidal evaluation; format: in vivo, Ipomoea hederacea; settings: rated 4-5 weeks after treatment
Summary of the method: as §1

[4] = system: ZEAMX (Corn, Field); assay: Preemergence herbicidal evaluation; format: in vivo, Zea mays; settings: rated 4-5 weeks after treatment
Summary of the method: as §1

[5] = system: IPOHE (Morningglory, Ivyleaf); assay: Postemergence herbicidal evaluation; format: in vivo, Ipomoea hederacea; settings: postemergence
Summary of the method: (§2)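 Compound is applied as a foliar spray to seedlings about two weeks old, formulated in equal parts acetone and water with 0.5% TWEEN 20 and delivered at 40 psi to give about 0.0156–0.500 kg per hectare. Injury is rated visually 0–9 after four to five weeks.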

[6] = system: CASOB (Sicklepod); assay: Preemergence herbicidal evaluation; format: in vivo, Cassia obtusifolia; settings: rated 4-5 weeks after treatment
Summary of the method: as §1

[7] = system: AMBEL (Ragweed, Common); assay: Postemergence herbicidal evaluation; format: in vivo, Ambrosia artemisifolia; settings: postemergence
Summary of the method: as §2

[8] = system: ECHCG (Barnyardgrass); assay: Postemergence herbicidal evaluation; format: in vivo, Echinochloa crus-galli; settings: postemergence
Summary of the method: as §2

[9] = system: SETVI (Foxtail, Green); assay: Postemergence herbicidal evaluation; format: in vivo, Setaria viridis; settings: postemergence
Summary of the method: as §2

[10] = system: ABUTH (Velvetleaf); assay: Postemergence herbicidal evaluation; format: in vivo, Abutilon theophrasti; settings: postemergence
Summary of the method: as §2

[11] = system: CHEAL (Lambsquarters, Common); assay: Preemergence herbicidal evaluation; format: in vivo, Chenopodium album; settings: rated 4-5 weeks after treatment
Summary of the method: as §1

[12] = system: TRZAWR (Wheat, Winter, cv Riband); assay: Postemergence herbicidal evaluation; format: in vivo, Triticum aestivum; settings: postemergence
Summary of the method: as §2

[13] = system: GALAP (Galium); assay: Preemergence herbicidal evaluation; format: in vivo, Galium aparine; settings: rated 4-5 weeks after treatment
Summary of the method: as §1

[14] = system: GLXMAW (Soybean, Williams); assay: Postemergence herbicidal evaluation; format: in vivo, Glycine max, (L.) Merr. cv Williams; settings: postemergence
Summary of the method: as §2

COC(=O)CN1C(=O)CSC1=Nc1cc(-n2c(=O)cc(C(F)(F)F)n(C)c2=O)c(F)cc1Cl [Compound 17, Methyl 2-{{2-chloro-5-[3,6-dihydro-3-methyl-2,6-dioxo-4-(trifluoromethyl)-1(2H)-pyrimidinyl]-4-fluorophenyl}imino}-4-oxo-3-thiazolidineacetate]
Herbicidal rating ECHORC ([1]; rate 0.0313 kg/ha): 4.0 | Herbicidal rating ECHORC ([1]; rate 0.0625 kg/ha): 9.0 | Herbicidal rating ECHORC ([1]; rate 0.1250 kg/ha): 9.0 | Herbicidal rating ECHORC ([1]; rate 0.2500 kg/ha): 9.0 | ECHCG preemergence herbicidal rating ([2]; rate 0.0156 kg/ha): 0.5 | ECHCG preemergence herbicidal rating ([2]; rate 0.0313 kg/ha): 0.7 | ECHCG preemergence herbicidal rating ([2]; rate 0.0625 kg/ha): 1.0 | ECHCG preemergence herbicidal rating ([2]; rate 0.1250 kg/ha): 0.7 | ECHCG preemergence herbicidal rating ([2]; rate 0.2500 kg/ha): 4.3 | ECHCG preemergence herbicidal rating ([2]; rate 0.5000 kg/ha): 9.0 | IPOHE preemergence herbicidal rating ([3]; rate 0.0156 kg/ha): 0.5 | IPOHE preemergence herbicidal rating ([3]; rate 0.0313 kg/ha): 0.7 | IPOHE preemergence herbicidal rating ([3]; rate 0.0625 kg/ha): 4.0 | IPOHE preemergence herbicidal rating ([3]; rate 0.1250 kg/ha): 5.7 | IPOHE preemergence herbicidal rating ([3]; rate 0.2500 kg/ha): 9.0 | IPOHE preemergence herbicidal rating ([3]; rate 0.5000 kg/ha): 9.0 | ZEAMX preemergence herbicidal rating ([4]; rate 0.0156 kg/ha): 0.0 | ZEAMX preemergence herbicidal rating ([4]; rate 0.0313 kg/ha): 0.3 | ZEAMX preemergence herbicidal rating ([4]; rate 0.0625 kg/ha): 1.0 | ZEAMX preemergence herbicidal rating ([4]; rate 0.1250 kg/ha): 1.0 | ZEAMX preemergence herbicidal rating ([4]; rate 0.2500 kg/ha): 3.3 | ZEAMX preemergence herbicidal rating ([4]; rate 0.5000 kg/ha): 5.5 | IPOHE herbicidal rating ([5]; rate 0.0156 kg/ha): 7.0 | IPOHE herbicidal rating ([5]; rate 0.0313 kg/ha): 8.5 | IPOHE herbicidal rating ([5]; rate 0.0625 kg/ha): 9.0 | IPOHE herbicidal rating ([5]; rate 0.1250 kg/ha): 9.0 | CASOB preemergence herbicidal rating ([6]; rate 0.0156 kg/ha): 0.0 | CASOB preemergence herbicidal rating ([6]; rate 0.0313 kg/ha): 0.7 | CASOB preemergence herbicidal rating ([6]; rate 0.0625 kg/ha): 0.7 | CASOB preemergence herbicidal rating ([6]; rate 0.1250 kg/ha): 0.0 | CASOB preemergence herbicidal rating ([6]; rate 0.2500 kg/ha): 3.7 | CASOB preemergence herbicidal rating ([6]; rate 0.5000 kg/ha): 7.0 | AMBEL herbicidal rating ([7]; rate 0.0156 kg/ha): 3.0 | AMBEL herbicidal rating ([7]; rate 0.0313 kg/ha): 6.0 | AMBEL herbicidal rating ([7]; rate 0.0625 kg/ha): 6.0 | AMBEL herbicidal rating ([7]; rate 0.1250 kg/ha): 9.0 | ECHCG herbicidal rating ([8]; rate 0.0156 kg/ha): 0.0 | ECHCG herbicidal rating ([8]; rate 0.0313 kg/ha): 0.0 | ECHCG herbicidal rating ([8]; rate 0.0625 kg/ha): 2.5 | ECHCG herbicidal rating ([8]; rate 0.1250 kg/ha): 8.0 | SETVI herbicidal rating ([9]; rate 0.0156 kg/ha): 2.0 | SETVI herbicidal rating ([9]; rate 0.0313 kg/ha): 2.5 | SETVI herbicidal rating ([9]; rate 0.0625 kg/ha): 4.0 | SETVI herbicidal rating ([9]; rate 0.1250 kg/ha): 5.5 | ABUTH herbicidal rating ([10]; rate 0.0156 kg/ha): 9.0 | ABUTH herbicidal rating ([10]; rate 0.0313 kg/ha): 9.0 | ABUTH herbicidal rating ([10]; rate 0.0625 kg/ha): 9.0 | ABUTH herbicidal rating ([10]; rate 0.1250 kg/ha): 9.0 | CHEAL preemergence herbicidal rating ([11]; rate 0.0156 kg/ha): 4.5 | CHEAL preemergence herbicidal rating ([11]; rate 0.0313 kg/ha): 6.0 | CHEAL preemergence herbicidal rating ([11]; rate 0.0625 kg/ha): 9.0 | CHEAL preemergence herbicidal rating ([11]; rate 0.1250 kg/ha): 9.0 | CHEAL preemergence herbicidal rating ([11]; rate 0.2500 kg/ha): 9.0 | CHEAL preemergence herbicidal rating ([11]; rate 0.5000 kg/ha): 9.0 | TRZAWR herbicidal rating ([12]; rate 0.0156 kg/ha): 3.3 | TRZAWR herbicidal rating ([12]; rate 0.0313 kg/ha): 4.5 | TRZAWR herbicidal rating ([12]; rate 0.0625 kg/ha): 5.5 | TRZAWR herbicidal rating ([12]; rate 0.1250 kg/ha): 7.3 | GALAP preemergence herbicidal rating ([13]; rate 0.0156 kg/ha): 0.0 | GALAP preemergence herbicidal rating ([13]; rate 0.0313 kg/ha): 0.0 | GALAP preemergence herbicidal rating ([13]; rate 0.0625 kg/ha): 0.0 | GALAP preemergence herbicidal rating ([13]; rate 0.1250 kg/ha): 1.0 | GALAP preemergence herbicidal rating ([13]; rate 0.2500 kg/ha): 9.0 | GALAP preemergence herbicidal rating ([13]; rate 0.5000 kg/ha): 9.0 | GLXMAW herbicidal rating ([14]; rate 0.0156 kg/ha): 4.3 | GLXMAW herbicidal rating ([14]; rate 0.0313 kg/ha): 5.5 | GLXMAW herbicidal rating ([14]; rate 0.0625 kg/ha): 5.8 | GLXMAW herbicidal rating ([14]; rate 0.1250 kg/ha): 7.5
